Experimental data taken from patent US4356186A, “Acetic acid derivatives and composition containing the same” (priority 1980, dated 1982).
Where two headings read alike, the source gives them in different places.

How the values were obtained:
[1] = test system: carrageenin-induced hind paw edema; assay: Anti-inflammatory activity (carrageenin-induced hind paw edema in rats); type: in vivo, Male Wistar rats; conditions: for inhibition in vivo at 0.2 mg/kg / inhibition in vivo at 0.4 mg/kg / inhibition in vivo at 0.8 mg/kg / inhibition in vivo at 1.6 mg/kg / inhibition in vivo at 3.2 mg/kg / inhibition in vivo at 1 mg/kg / inhibition in vivo at 4 mg/kg / inhibition in vivo at 5 mg/kg / inhibition in vivo at 2 mg/kg: Rattus norvegicus, po; for inhibition in vivo at 0.2 mg/kg: 0.2 mg/kg p.o.; for inhibition in vivo at 0.4 mg/kg: 0.4 mg/kg p.o.; for inhibition in vivo at 0.8 mg/kg: 0.8 mg/kg p.o.; for inhibition in vivo at 1.6 mg/kg: 1.6 mg/kg p.o.; for inhibition in vivo at 3.2 mg/kg: 3.2 mg/kg p.o.; for inhibition in vivo at 1 mg/kg: 1 mg/kg p.o.; for inhibition in vivo at 4 mg/kg: 4 mg/kg p.o.; for inhibition in vivo at 5 mg/kg: 5 mg/kg p.o.; for inhibition in vivo at 2 mg/kg: 2 mg/kg p.o.
Experimental: Anti-inflammatory activity (carrageenin-induced hind paw edema in rats)
The test was carried out in a similar manner as disclosed in Proc. Soc. Exptl.
Male Wistar rats, weighing 100-300 g, were used. A 1% aqueous carrageenin solution (0.1 ml) was administered subcutaneously into the hind foot pad of rats. Two and three hours after the carrageenin injection, the paw volume was measured and the swelling rate was calculated based on the paw volume before the carrageenin injection. The inhibitory rate was determined as compared with the average swelling rate of the control group to which only vehicle was administered. The test compounds were administered orally one hour before the carrageenin injection.

stomach ulcer = assay: Gastrointestinal ulcerogenicity; type: in vivo, Male Wistar rats; design: key to Average score of stomach ulcer: ulcer score 1 to 4, 4 = most severe ulcer; conditions: for Number of rats having a score of stomach ulcer of 2 or more/total number of rats used / Average score of stomach ulcer: after 6 hours; for Average score of stomach ulcer: score 1 to 4; for gastrointestinal ulcerogenicity compared with the known aspirin: in words, from Table 2
Experimental: Gastrointestinal ulcerogenicity
The test was carried out in a similar manner as disclosed in Arzneim. Forsch., 19, 36 (1969).
Male Wistar rats, weighing 130-180 g, were used. After the rats were fasted for 24 hours, the test compound was orally administered one time. After 6 hours, the rats were killed and the stomach was removed. […] The degree of stomach ulcer was scored from 1 to 4, wherein 4 is the most severe ulcer. In Table 2, there are shown the average score of stomach ulcer in each dose and also the ratio of the number of rats having a score of stomach ulcer of 2 or more to total number of rats used.

Acute lethal toxicity = type: in vivo; conditions: rat, in vivo; single oral administration, mortality on the 7th day, Litchfield and Wilcoxon
Experimental: (§1) The mortality was observed on the 7th day after single oral administration of test compounds in male Wistar rats, and the LD50 was calculated according to the method of Litchfield and Wilcoxon.

male Wistar rats = assay: Acute lethal toxicity; type: in vivo; conditions: from LD50, single oral administration
Experimental: as §1

[2] = 2 h, two hours, read-out: Inhibitory rate, two hours after the carrageenin injection
[3] = 3 h, three hours, read-out: Inhibitory rate, three hours after the carrageenin injection

| SMILES | Number of rats having a score of stomach ulcer of 2 or more/total number of rats used (stomach ulcer; 16 mg/kg p.o.) | Average score of stomach ulcer (stomach ulcer; 16 mg/kg p.o.) | Number of rats having a score of stomach ulcer of 2 or more/total number of rats used (stomach ulcer; 32 mg/kg p.o.) | Average score of stomach ulcer (stomach ulcer; 32 mg/kg p.o.) | Number of rats having a score of stomach ulcer of 2 or more/total number of rats used (stomach ulcer; 64 mg/kg p.o.) | Average score of stomach ulcer (stomach ulcer; 64 mg/kg p.o.) | inhibition in vivo at 5 mg/kg [1, 2] [%] | inhibition in vivo at 5 mg/kg [1, 3] [%] | gastrointestinal ulcerogenicity compared with the known aspirin (stomach ulcer) | inhibition in vivo at 2 mg/kg [1, 2] [%] | inhibition in vivo at 2 mg/kg [1, 3] [%] | also measured |
| --- | --- | --- | --- | --- | --- | --- | --- | --- | --- | --- | --- | --- |
| CC(C(=O)O)c1ccc2c(c1)SCC1CCCCC1C2=O (stereo not shown) [F, 2-(6,6a,7,8,9,10,10a,11-Octahydro-11-oxodibenzo[b,e]thiepin-3-yl)propionicacid-A] | 2/6 | 1.00 | 2/6 | 1.00 | 6/9 | 1.67 |  |  |  |  |  | inhibition in vivo at 0.2 mg/kg [1, 2]: 8.6%; inhibition in vivo at 0.4 mg/kg [1, 2]: 14.9%; inhibition in vivo at 0.8 mg/kg [1, 2]: 20.5%; inhibition in vivo at 1.6 mg/kg [1, 2]: 28.4%; inhibition in vivo at 3.2 mg/kg [1, 2]: 36.4%; inhibition in vivo at 0.2 mg/kg [1, 3]: 6.7%; inhibition in vivo at 0.4 mg/kg [1, 3]: 11.6%; inhibition in vivo at 0.8 mg/kg [1, 3]: 12.6%; inhibition in vivo at 1.6 mg/kg [1, 3]: 20.3%; inhibition in vivo at 3.2 mg/kg [1, 3]: 30.6%; anti-inflammatory activity compared with the known indomethacin ([1]; in words, from Table 1): comparable or superior to that of the known indomethacin |
| CC(C(=O)O)c1ccc2c(c1)SCC1CCCCC1C2=O (stereo not shown) [H, Calcium 2-(6,6a,7,8,9,10,10a,11-octahydro-11-oxodibenzo[b,e]thiepin-3-yl)propionate] | 1/3 | 1.00 | 2/3 | 1.33 |  |  |  |  |  |  |  | inhibition in vivo at 1 mg/kg [1, 2]: 31.4%; inhibition in vivo at 4 mg/kg [1, 2]: 39.5%; inhibition in vivo at 1 mg/kg [1, 3]: 26.2%; inhibition in vivo at 4 mg/kg [1, 3]: 35.7% |
| CCOC(=O)C(C)c1ccc2c(c1)SCC1CCCCC1C2=O (stereo not shown) [I, Ethyl 2-(6,6a,7,8,9,10,10a,11-octahydro-11-oxodibenzo[b,e]thiepin-3-yl)propionate] |  |  | 0/6 | 0.33 | 3/6 | 1.00 | 42.2 | 38.3 | far less gastrointestinal ulcerogenicity than the known aspirin |  |  | Number of rats having a score of stomach ulcer of 2 or more/total number of rats used (stomach ulcer; 8 mg/kg p.o.): 0/3; Average score of stomach ulcer (stomach ulcer; 8 mg/kg p.o.): 0.00 |
| CCCCOC(=O)C(C)c1ccc2c(c1)SCC1CCCCC1C2=O (stereo not shown) [J, Butyl 2-(6,6a,7,8,9,10,10a,11-octahydro-11-oxodibenzo[b,e]thiepin-3-yl)propionate] | 0/3 | 0.33 | 3/6 | 1.33 | 3/6 | 1.50 | 31.8 | 26 |  | 21.5 | 11.5 |  |
| CC(C(=O)OCCc1ccccc1)c1ccc2c(c1)SCC1CCCCC1C2=O (stereo not shown) [L, Phenethyl 2-(6,6a,7,8,9,10,10a,11-octahydro-11-oxodibenzo[b,e]thiepin-3-yl)propionate] |  |  | 1/9 | 0.56 | 0/6 | 0.67 | 44.8 | 39.1 | far less gastrointestinal ulcerogenicity than the known aspirin | 20.7 | 24.8 | LD50 at 168 h (Acute lethal toxicity): 230 mg/kg; toxicity relative to that of indomethacin (male Wistar rats): about 1/12 |
| CC(C(=O)OCc1ccccn1)c1ccc2c(c1)SCC1CCCCC1C2=O (stereo not shown) [O, 2-Pyridylmethyl 2-(6,6a,7,8,9,10,10a,11-octahydro-11-oxodibenzo[b,e]thiepin-3-yl)propionate] |  |  | 2/6 | 0.67 | 4/6 | 1.83 | 30.8 | 30.6 |  | 31.4 | 28.8 |  |
| CC(C(=O)OCCc1ccccn1)c1ccc2c(c1)SCC1CCCCC1C2=O (stereo not shown) [P, 2-(2-Pyridyl)ethyl 2-(6,6a,7,8,9,10,10a,11-octahydro-11-oxodibenzo[b,e]thiepin-3-yl)propionate] |  |  | 0/6 | 0.17 | 3/6 | 0.50 | 27.6 | 25.5 | far less gastrointestinal ulcerogenicity than the known aspirin |  |  |  |
